Laboratory results as given in patent US20200031920A1, “Combination Therapy for Treating Cancer” (The George Washington University, priority 2017, published 2020).

How the values were obtained:
SKOV3 CR cells [1] = assay: cell viability / proliferation (SRB) assay, cisplatin resistant SKOV3 CR cells; format: cell-based; details: combination with carboplatin, CI<1 synergism
SKOV3 CR cells [2] = assay: combinational high throughput screen with cisplatin; format: cell-based; details: in combination with DMSO, 1 μM cisplatin or 20 μM cisplatin
Excerpt: A combinational HTS using multiple compound libraries including NPC (NIH Pharmaceutical Collection), MIPE (Mechanism interrogation plate), and LOPAC (The Library of Pharmacologically Active Compounds) was used to identify compounds that can overcome cisplatin resistance of SKOV3 CR cells (FIG. 5). The library of pharmacologically active compounds (LOPAC®) of 1280 compounds (1) was purchased from Sigma. The NCGC Pharmaceutical Collection (NPC) of 2816 compounds and mechanism interrogation plate (MIPE) library of 1920 compounds were previously described. Bromberg, J Clin Invest 109: 1139-1142 (2002) and Buchert et al., Oncogene 35: 939-951 (2016). Compounds from all libraries were obtained as powder and dissolved in dimethyl sulfoxide (DMSO) […]. Combinational HTS was performed as previously described. Szasz et al., Oncotarget 7: 49322-49333 (2016). A total of 6,016 compounds were screened. […] In the second screen, these 112 compounds were selected for a dose-response confirmation screen in combination with DMSO, 1 μM cisplatin or 20 μM cisplatin (FIG. 5).

[3] = tested on: SKOV3 CR xenograft tumors; assay: SKOV3 CR xenograft tumors in nude mice; format: in vivo
Protocol: FIG. 26 are line graphs showing the growth curves of tumors (A) and Kaplan-Meier survival curves (C) from mice treated with vehicle, LY2784544 (15 mg/kg/day intraperitoneally), cisplatin (8 mg/kg/week intraperitoneally), or LY2784544 plus cisplatin (combo) for 2 weeks. A photograph of the representative tumor from mice in each treatment arm is also shown (B). Data in (A) are represented as mean±SEM, n=6 mice/group. *p<0.05, **p<0.01, ***p<0.001. Data in (B) are represented as n=6 mice/group. *p<0.05, **p<0.01. Ruler scale in (B) is in cm.
FIG. 27 is an illustration showing the IHC and TUNEL staining of tumors from mice in each treatment arm sacrificed after 4 days of treatment. n=3 mice/group. Bar=50 μm.
To determine whether LY2784544 is able to sensitize SKOV3 CR cells to cisplatin in vivo, SKOV3 CR cells were implanted subcutaneously into nude mice. When the tumor volume reached 100 mm^3, mice were randomized to receive intraperitoneal injections of vehicle, cisplatin (8 mg/kg on days 1 and 8), LY2784544 (15 mg/kg/d from day 1 to day 14), or the combination of cisplatin and LY2784544. […] To evaluate whether this in vivo tumor suppression was through inhibition of the JAK2 pathway and increased apoptosis, the tumor samples four days after full dosage treatment were collected. […] Quantification of phosphorylated JAK2 and TUNEL staining in tumor tissues treated was performed (FIG. 28). […] To confirm the selectivity of LY2784544, an in vitro kinase profiling was conducted to examine the interaction of LY2784544 with more than 450 human kinases.

[4] = tested on: reactive oxygen species (ROS); assay: ROS production (CellROX Orange reagent); format: cell-based; details: SKOV3 cells, YCG063 20 μM, cisplatin 1 μM, 24 hr
Protocol: FIG. 69 are bar graphs ((A)-(C) and (E)-(F)) and illustrations ((D) and (G)) showing that reactive oxygen species (ROS) induces IL-11 expression. (A) is a bar graph showing quantification of ROS production in SKOV3 and SKOV3 CR cells. Data are represented as means±SD from three independent experiments. **p<0.01. Scale bar, 100 μm. (B) is a bar graph showing quantification of ROS production in SKOV3 CR cells after treatment with the ROS inhibitor YCG063 at 20 μM for 24 hr. Data are represented as means±SD from three independent experiments. ***p<0.001. (C) is a bar graph showing IL-11 levels measured by ELISA in the medium of SKOV3 CR cells treated with YCG063 at 20 μM for 24 hr. Data are represented as mean±SD from three independent experiments performed in triplicate. ***p<0.001. […] (E) is a bar graph showing quantification of ROS production in SKOV3 cells after treated with the ROS inhibitor YCG063 (20 μM), cisplatin (1 μM), or both for 24 hr. […] (F) is a bar graph showing IL-11 levels measured by ELISA in SKOV3 cells treated with YCG063 (20 μM), cisplatin (1 μM) or both for 24 hr. […]
DNA damage induces generation of reactive oxygen species (ROS). […] ROS was detected with a live cell-permeable, fluorophore CellROX Orange reagent (Thermo Fisher Scientific) according to the manufacturer's instructions. […] ROS intensity was analyzed using ImageJ (NIH) software. […]

[5] = tumor samples four days after full dosage treatment

Structure (SMILES) | medium CI (combination index) (SKOV3 CR cells [1]) | sensitization to cisplatin in second (dose-response confirmation) screen (SKOV3 CR cells [2]) | tumor growth, combination versus vehicle or single agents ([3]; LY2784544 15 mg/kg/d i.p. day 1-14 plus cisplatin 8 mg/kg i.p. days 1 and 8) | survival of mice, combination ([3]; LY2784544 15 mg/kg/d i.p. plus cisplatin 8 mg/kg i.p. days 1 and 8) | histopathology of liver and kidney ([3]; any treated groups (cisplatin, LY2784544, combination), 4 days after final treatment) | mouse body weight, combined treatment with cisplatin ([3]; during treatment) | apoptosis in tumors (TUNEL), combined with cisplatin [3, 5] | phosphorylation of JAK2 in tumors (IHC) [3, 5] | ROS production [4]
Cc1cc(Nc2cc(CN3CCOCC3)c3nc(C)c(Cc4ccc(Cl)cc4F)n3n2)n[nH]1 [LY2784544] | 0.75 | significantly sensitize SKOV3 CR cells to cisplatin | significantly reduced the tumor growth | improved survival of the mice | No histopathological changes and lesions in liver and kidney | no significant reduction in mouse body weight | significantly induced the apoptosis | efficiently reduce the phosphorylation of JAK2 in vivo | 
N.N.[Cl][Pt][Cl] [cisplatin] |  |  |  |  |  |  |  |  | activated ROS production
